The values below come from PMC4292808 (Journal of Medicinal Chemistry, 2014).

Series [1] deals with phosphorylation of IKKα/β and degradation of IκB-α in L929 cells. The series can be described thus: TNFα-induced NF-κB signaling, Western blot. It is filed as cell-based, mouse. (Immunoblotting shows a protein as a band on a membrane.)
The test system of series [2] is phosphorylation of p105, p38 and JNK1/2 in 293 IL-1R cells. Description: IL-1α-induced signaling, Western blot. Type of series: cell-based. The note with it: human 293 IL-1R cells stimulated with IL-1α.
In series [3] the test system is phosphorylation of p105, p38 and JNK1/2 in MEFs. Description: IL-1α-induced signaling, Western blot. Type of series: cell-based, mouse. The note with it: MEFs stimulated with IL-1α.
The subject of series [4] is signaling in Gen2.2 cells. The series can be described thus: CL097. Type of series: cell-based. The note with it: human Gen2.2 cells, 1 μM, 1 h pretreatment.
The target of series [5] is T1, TAK1 (Homo sapiens, UniProt O43318).
T1 sequence (O43318 1-303 limits assumed): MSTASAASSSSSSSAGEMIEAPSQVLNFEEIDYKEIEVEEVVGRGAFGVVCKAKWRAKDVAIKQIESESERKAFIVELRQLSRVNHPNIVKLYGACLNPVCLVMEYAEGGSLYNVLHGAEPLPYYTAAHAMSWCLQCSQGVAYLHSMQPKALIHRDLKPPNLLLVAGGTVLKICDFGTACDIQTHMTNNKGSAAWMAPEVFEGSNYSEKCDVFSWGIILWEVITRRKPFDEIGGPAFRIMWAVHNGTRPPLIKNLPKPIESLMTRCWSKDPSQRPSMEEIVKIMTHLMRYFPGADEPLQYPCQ
Description: biochemical.

Series [6] can be described thus: In vivo pharmacokinetic studies. The conditions noted are these: male, Swiss albino, mouse, plasma, iv, 1 mg/kg.
The test system of series [7] is BCR-ABL-dependent Ba/F3 cells. Description: Ba/F3 cell proliferation assay. Type of series: cell-based. The note with it: Mus musculus, BaF3, read-out: cell growth inhibition.
The next series concerns the target T2, MAP4K2 (Homo sapiens, UniProt Q12851).
T2 sequence (Q12851 1-820): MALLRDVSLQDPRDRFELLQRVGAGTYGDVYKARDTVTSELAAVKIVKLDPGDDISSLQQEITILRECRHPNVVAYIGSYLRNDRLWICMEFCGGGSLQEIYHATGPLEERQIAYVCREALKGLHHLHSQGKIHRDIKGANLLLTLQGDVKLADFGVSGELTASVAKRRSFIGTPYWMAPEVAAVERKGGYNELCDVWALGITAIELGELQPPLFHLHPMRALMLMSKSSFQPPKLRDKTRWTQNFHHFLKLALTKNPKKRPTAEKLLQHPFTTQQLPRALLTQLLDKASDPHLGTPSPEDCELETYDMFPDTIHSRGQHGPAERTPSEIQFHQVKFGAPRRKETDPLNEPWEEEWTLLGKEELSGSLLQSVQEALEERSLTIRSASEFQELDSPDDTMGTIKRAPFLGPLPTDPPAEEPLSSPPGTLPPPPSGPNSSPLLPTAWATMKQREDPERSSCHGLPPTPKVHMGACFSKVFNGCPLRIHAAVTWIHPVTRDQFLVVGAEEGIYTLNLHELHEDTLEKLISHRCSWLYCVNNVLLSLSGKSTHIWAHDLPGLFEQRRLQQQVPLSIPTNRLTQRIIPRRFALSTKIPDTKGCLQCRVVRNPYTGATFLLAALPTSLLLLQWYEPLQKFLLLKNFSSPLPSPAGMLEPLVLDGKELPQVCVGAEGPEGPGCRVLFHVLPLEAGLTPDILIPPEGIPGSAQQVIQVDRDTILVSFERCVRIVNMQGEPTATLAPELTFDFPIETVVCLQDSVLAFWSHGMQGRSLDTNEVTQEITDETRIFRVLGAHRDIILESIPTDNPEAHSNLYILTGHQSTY
The series can be described thus: KiNativ HUH7 lysate. Type of series: binding. The conditions noted are these: in words.

In series [8] the target is T3, TAK1 (Homo sapiens, UniProt O43318).
T3 sequence (O43318 1-606): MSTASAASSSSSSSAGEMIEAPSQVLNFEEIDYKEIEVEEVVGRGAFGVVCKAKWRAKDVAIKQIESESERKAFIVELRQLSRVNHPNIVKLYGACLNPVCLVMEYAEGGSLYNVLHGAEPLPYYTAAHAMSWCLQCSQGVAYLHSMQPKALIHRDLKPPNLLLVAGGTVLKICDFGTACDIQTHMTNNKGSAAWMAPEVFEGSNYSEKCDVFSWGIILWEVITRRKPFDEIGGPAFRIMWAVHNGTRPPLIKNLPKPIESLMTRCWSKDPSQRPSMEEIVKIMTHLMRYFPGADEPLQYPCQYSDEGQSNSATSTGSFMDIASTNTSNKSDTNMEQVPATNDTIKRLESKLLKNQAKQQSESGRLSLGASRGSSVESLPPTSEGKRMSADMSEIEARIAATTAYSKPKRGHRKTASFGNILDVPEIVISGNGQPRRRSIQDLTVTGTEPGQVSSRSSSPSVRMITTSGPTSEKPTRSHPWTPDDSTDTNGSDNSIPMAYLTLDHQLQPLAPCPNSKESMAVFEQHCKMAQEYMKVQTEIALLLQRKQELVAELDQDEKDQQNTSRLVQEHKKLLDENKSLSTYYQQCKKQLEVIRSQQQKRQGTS
Description: KiNativ HUH7 lysate. It is filed as binding. The note with it: in words.

Series [9] has as its system phosphorylation of p38 MAPK and SMAD2 in WT MEFs. It is filed as cell-based, mouse. The note with it: WT and TAK1-deficient MEFs.
Series [10] has as its system phosphorylation of p38 MAPK in TAK1-deficient MEFs. Description: IL-1 and TGFβ-induced signaling in TAK1-deficient MEFs, Western blot. It is filed as cell-based, mouse. The conditions noted are these: 500 nM.
The target in a further series is p38α (Homo sapiens, UniProt Q16539). Description: SelectScreen enzymatic assay. The note with it: KiNativ and enzymatic assays, in words. It is filed as biochemical.
Chain of p38α (Q16539 whole entry): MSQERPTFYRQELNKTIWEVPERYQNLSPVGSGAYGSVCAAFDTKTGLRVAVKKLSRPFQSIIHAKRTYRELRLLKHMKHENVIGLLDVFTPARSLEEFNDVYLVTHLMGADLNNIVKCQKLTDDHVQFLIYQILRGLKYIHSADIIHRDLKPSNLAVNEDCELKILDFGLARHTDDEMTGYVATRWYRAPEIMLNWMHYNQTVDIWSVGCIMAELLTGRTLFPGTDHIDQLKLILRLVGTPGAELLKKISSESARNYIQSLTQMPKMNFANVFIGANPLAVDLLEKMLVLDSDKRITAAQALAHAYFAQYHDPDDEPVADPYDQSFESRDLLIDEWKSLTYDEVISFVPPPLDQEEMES
Setting [11] is: 100 nM, 30 min pretreatment, TNFα 5 min, Western blot.

Some results are limits rather than exact numbers.

The term IC50 denotes the concentration that gives 50% inhibition. Low values mean inhibition by little substance, high ones a need for much substance. For orientation: half-life means the time in which the quantity being followed falls by half. A lower half-life goes with fast loss. On to `CCN1CCN(Cc2ccc(NC(=O)c3ccc(C)c(Oc4ccnc5[nH]ccc45)c3)cc2C(F)(F)F)CC1` [Compound 1, 3-((1H-Pyrrolo[2,3-b]pyridin-4-yl)oxy)-N-(4-((4-ethylpiperazin-1-yl)methyl)-3-(trifluoromethyl)phenyl)-4-methylbenzamide], for which the “effect on TNFα-induced phosphorylation of IKKα/β and degradation of IκB-α” value (from here on “effect on TNFα-induced phosphorylation”) in series [1] (setting [11]) is listed as “comparable cellular potency”. Further, the “phosphorylation levels of p105, p38 and JNK1/2” value in series [2] and in [3] was “inhibited in a dose-dependent manner” throughout. For the same compound, in series [4], the CL097-induced signaling result is “blocked signaling”. At TAK1 [5], this compound displayed an IC50 of 15 nM. This compound showed a half-life in [6] of 2 h. In general, inhibition refers to the drop in the measured response relative to a control, in per cent. In the case of `CCN1CCN(Cc2ccc(NC(=O)c3ccc(C)c(/C=C/c4cnc5[nH]ccc5c4OC)c3)cc2C(F)(F)F)CC1` [Compound 2, (E)-N-(4-((4-Ethylpiperazin-1-yl)methyl)-3-(trifluoromethyl)phenyl)-3-(2-(4-methoxy-1H-pyrrolo[2,3-b]pyridin-5-yl)vinyl)-4-methylbenzamide], the inhibition at 0.01 µM in series [7] is more than 50%. Further, the “effect on TNFα-induced phosphorylation” value in series [1] (setting [11]) was “comparable cellular potency”. By clearance is commonly meant a measure of how efficiently the substance is removed, as volume per time. Compound `CCN1CCN(Cc2ccc(NC(=O)c3ccc(C)c(Oc4ncnc5[nH]ccc45)c3)cc2C(F)(F)F)CC1` [Compound 3] registered a clearance at 24 h in [6] of 65.8 mL/min/kg. As to `CCN1CCN(Cc2ccc(NC(=O)c3ccc(C)c(Oc4ncnc5[nH]ncc45)c3)cc2C(F)(F)F)CC1` [Compound 4], the clearance at 24 h in [6] came to 99.2 mL/min/kg. In series [6], `CCN1CCN(Cc2ccc(NC(=O)c3ccc(C)c(Oc4ncnc5[nH]c(C)cc45)c3)cc2C(F)(F)F)CC1` [Compound 5] displayed a clearance at 24 h of 26.5 mL/min/kg. This clearance at 24 h lies about 3.7-fold lower than the previous one. Consider `CCN1CCN(Cc2ccc(NC(=O)c3ccc(C)c(Oc4ccnc(C(=O)NC)c4)c3)cc2C(F)(F)F)CC1` [Compound 9], for which, at MAP4K2, the “activity against MAP4K2” value was “inactive”. Further, the “activity against TAK1” value at TAK1 [8] was “inactive”.

With `CCN1CCN(Cc2ccc(NC(=O)c3cccc(Oc4ccnc5[nH]ccc45)c3)cc2C(F)(F)F)CC1` [Compound 10], the inhibition at 0.01 µM in [7] is more than 50%. With `CCN1CCN(Cc2ccc(C(=O)Nc3ccc(C)c(Oc4ccnc5[nH]ccc45)c3)cc2C(F)(F)F)CC1` [Compound 11], the “effect on TNFα-induced phosphorylation” value in series [1] (setting [11]) was “no effect”. On to `Cc1cn(-c2cc(NC(=O)c3ccc(C)c(Oc4ccnc5[nH]ccc45)c3)cc(C(F)(F)F)c2)cn1` [Compound 12], for which, in series [1] (setting [11]), the “effect on TNFα-induced phosphorylation” value is recorded as “no effect”. Turning to `CNc1cc(Oc2cc(C(=O)Nc3cc(-n4cnc(C)c4)cc(C(F)(F)F)c3)ccc2C)ncn1` [Compound 16], in [1] (setting [11]), the “effect on TNFα-induced phosphorylation” value was “no effect”. Further, in [4], the CL097-induced signaling result is recorded as “not able to block”. Besides, in series [9], the “IL-1 and TGFβ-induced p38 MAPK phosphorylation” value is listed as “dose-dependent inhibition”; the “TGFβ-induced phosphorylation of SMAD2” value was “did not inhibit”. Further, the “IL-1-induced phosphorylation of p38” value in series [10] is listed as “complete inhibition”.

As to `CNc1cc(Oc2cc(C(=O)Nc3cc(N4CCN(C)CC4)cc(C(F)(F)F)c3)ccc2C)ncn1` [Compound 17], in series [1] (setting [11]), the “effect on TNFα-induced phosphorylation” value is reported as “no effect”. Besides, the “effect on TNFα-induced phosphorylation” value in series [1] (concentrations up to 1 μM) is recorded as “not very effective”. Also, in [9], the “IL-1 and TGFβ-induced p38 MAPK phosphorylation” value is “dose-dependent inhibition”; the “TGFβ-induced phosphorylation of SMAD2” value is recorded as “did not inhibit”. Besides, the “IL-1-induced phosphorylation of p38” value in [10] is “complete inhibition”.

In the case of `CCN1CCN(Cc2ccc(NC(=O)c3cccc(CCc4cnc5[nH]ccc5c4OC)c3)cc2C(F)(F)F)CC1` [Compound 23], at p38α, the “activity against p38α” value is “inactive”.

For the compound `CCN1CCN(Cc2ccc(NC(=O)c3cccc(/C=C/c4cnc5[nH]ccc5c4OC)c3)cc2C(F)(F)F)CC1` [Compound 24], on p38α, the “activity against p38α” value was “inactive”. For the compound `COc1cc(O)c2c(c1)/C=C/C[C@H](O)[C@H](O)C(=O)/C=C\C[C@H](C)OC2=O` [Compound 37, 5Z-7-oxozeaenol, reference compound], the “TGFβ-induced phosphorylation of SMAD2” value in series [9] is “inhibited phosphorylation of both p38 and SMAD2”.

Regarding `C[S+]([O-])c1ccc(-c2nc(-c3ccc(F)cc3)c(-c3ccncc3)[nH]2)cc1` (centres unmarked) [Compound 38, SB203580, reference compound], the “effect on TNFα-induced phosphorylation” value in series [1] (setting [11]) is reported as “no effect”. Still for that read-out and setting: the same measure for `CNC(=O)c1ccc(C)c(-n2c(C)cc(OCc3ccc(F)cc3F)c(Br)c2=O)c1` [Compound 39, PH-797804, reference compound]: “no effect”. As for `CCN1CCN(Cc2ccc(NC(=O)c3ccc(OC)c(Oc4ncnc5[nH]ccc45)c3)cc2C(F)(F)F)CC1` [S1], in series [4], the CL097-induced signaling result is “only partially inhibited signaling”.
